Experimental data taken from ChEMBL document CHEMBL1201862, “PubChem BioAssay data set” (2004).
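Tested at 5 concentrations; 48 h exposure; 96-well plates; endpoints linearly interpolated, else capped at highest concentration. At the GI50, growth is halved.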 Calls of active or inactive are those of the source. No stated cut-off is given here; in the data, active = GI50 up to about 1.1 µM and inactive = higher. Starred links: 1 amine or outer side, 2 acyl side, 3 side chain; linkers in the order of their positions; H or OH if unused. Non-standard residues stand in square brackets, D forms with d. Residues, ends and D or L forms follow the SMILES beside them. X41 = CSCCCC(N[*:1])C(=O)[*:2]

Key:
Assay in all cases: NCI anticancer screen, dose series, 48 h
ACHN = test system: ACHN
EKVX = test system: EKVX
HCT-15 = test system: HCT-15
M14 = test system: M14
786-0 = test system: 786-0
OVCAR-5 = test system: OVCAR-5
T47D = test system: T47D
CCRF-CEM = test system: CCRF-CEM
COLO 205 = test system: COLO 205
UO-31 = test system: UO-31
HOP-92 = test system: HOP-92
MDA-N = test system: MDA-N
TK-10 = test system: TK-10
NCI-H23 = test system: NCI-H23
MDA-MB-435 = test system: MDA-MB-435
SK-MEL-28 = test system: SK-MEL-28
OVCAR-4 = test system: OVCAR-4
OVCAR-8 = test system: OVCAR-8
LOX IMVI = test system: LOX IMVI
RXF 393 = test system: RXF 393

Row | SMILES | GI50 (ACHN) | GI50 (EKVX) | GI50 (HCT-15) | GI50 (M14) | GI50 (786-0) | GI50 (OVCAR-5) | GI50 (T47D) | GI50 (CCRF-CEM) | GI50 (COLO 205) | GI50 (UO-31) | GI50 (HOP-92) | GI50 (MDA-N) | GI50 (TK-10) | GI50 (NCI-H23) | GI50 (MDA-MB-435) | GI50 (SK-MEL-28) | GI50 (OVCAR-4) | GI50 (OVCAR-8) | GI50 (LOX IMVI) | GI50 (RXF 393)
1 | S=C(NCc1ccccc1)N/N=C/c1ccccn1 | 1.27 µM (inactive) | 1.82 µM (inactive) | 1.26 µM | 0.5 µM (active) | 1.59 µM (inactive) | > 21.8 µM (inactive) | 0.161 µM (active) | < 0.0409 µM (active) | 0.104 µM (active) | 1.25 µM (inactive) | 2.21 µM (inactive) | 8.53 µM (inactive) | 12.9 µM (inactive) | 3.56 µM (inactive) | 5.69 µM (inactive) | 5.62 µM (inactive) | 3.01 µM (inactive) | 1.15 µM (inactive) | 1.53 µM (inactive) | 
2 | CN1CCN(Cc2ccccc2)CC1CC#N (centres undefined) | > 100 µM (inactive) | > 100 µM (inactive) | > 100 µM |  | > 100 µM (inactive) | > 100 µM (inactive) | > 100 µM (inactive) | > 100 µM (inactive) | > 100 µM (inactive) | > 100 µM (inactive) |  | > 100 µM (inactive) | > 100 µM (inactive) | > 100 µM (inactive) | > 100 µM (inactive) | > 100 µM (inactive) | > 100 µM (inactive) | > 100 µM (inactive) | > 100 µM (inactive) | > 100 µM (inactive)
3 | Cc1oc2c(cc(O)c3ccccc32)c2cccc1-2 | > 100 µM (inactive) | > 100 µM (inactive) | 99.5 µM | 24.1 µM (inactive) | > 100 µM (inactive) | > 100 µM (inactive) | > 100 µM (inactive) | > 100 µM (inactive) | > 100 µM (inactive) |  | > 100 µM (inactive) | > 100 µM (inactive) | > 100 µM (inactive) | > 100 µM (inactive) | > 100 µM (inactive) | > 100 µM (inactive) |  | > 100 µM (inactive) | > 100 µM (inactive) | 
4 | COC(=O)C1=C2SCc3cccc(c3)CSC3=C(C(=O)OC)SC(=C(S2)S1)S3 | > 100 µM (inactive) |  |  | 82.6 µM (inactive) | > 100 µM (inactive) |  | > 100 µM (inactive) | > 100 µM (inactive) | > 100 µM (inactive) | > 100 µM (inactive) |  | 35.2 µM (inactive) | > 100 µM (inactive) |  | > 100 µM (inactive) | > 100 µM (inactive) | > 100 µM (inactive) |  |  | > 100 µM (inactive)
5 | O=C1CC(=O)NC(NN2C(=O)/C(=C/c3ccc(Cl)c(Cl)c3)N=C2c2ccccc2)=N1 | 40.2 µM (inactive) |  | 30.3 µM | 28.8 µM (inactive) | 26.9 µM (inactive) | 46.7 µM (inactive) | 47.1 µM (inactive) | 11.9 µM (inactive) | 18.8 µM (inactive) | 29.6 µM (inactive) | 27 µM (inactive) | 23.9 µM (inactive) | 41.9 µM (inactive) | 26.7 µM (inactive) | 27 µM (inactive) | 28.8 µM (inactive) | 49.3 µM (inactive) | 34 µM (inactive) |  | 24.8 µM (inactive)
6 | COc1cc(Nc2ccc3c(c2)CCC3)nc(OC)n1 | 28.2 µM (inactive) | 17.1 µM (inactive) | 27.8 µM | 43.3 µM (inactive) | 37.2 µM (inactive) | 78 µM (inactive) | 26.4 µM (inactive) | 49.7 µM (inactive) | 37.3 µM (inactive) |  | 32.4 µM (inactive) | 26.1 µM (inactive) | 28.2 µM (inactive) | 36 µM (inactive) | > 100 µM (inactive) | > 100 µM (inactive) | 33.3 µM (inactive) | 34.8 µM (inactive) | 45.7 µM (inactive) | 
7 | COCCCN1C(=O)C2c3[nH]c4ccccc4c3C3CCC(C(C)(C)C)CC3C2C1=O (centres undefined) | 27.4 µM (inactive) | 34.4 µM (inactive) | 19.8 µM | 18.4 µM (inactive) | 22.7 µM (inactive) |  | 48.4 µM (inactive) | 22.6 µM (inactive) | > 10 µM (inactive) | 54.3 µM (inactive) |  | 35.6 µM (inactive) | 59.3 µM (inactive) | 27 µM (inactive) | 29.7 µM (inactive) | 38 µM (inactive) | 31.5 µM (inactive) | 35.5 µM (inactive) |  | 21.3 µM (inactive)
8 | Cc1ccc2[nH]c(=O)c(-c3cnc(O)nn3)c(O)c2c1 | 19.7 µM (inactive) | 3.4 µM (inactive) | > 100 µM | > 100 µM (inactive) | > 100 µM (inactive) | > 100 µM (inactive) | 53.2 µM (inactive) | > 100 µM (inactive) | > 100 µM (inactive) | 16.6 µM (inactive) |  | 17.7 µM (inactive) | > 100 µM (inactive) | 86.7 µM (inactive) | 60.3 µM (inactive) | > 100 µM (inactive) | 17.8 µM (inactive) | > 100 µM (inactive) | > 100 µM (inactive) | 17.2 µM (inactive)
9 | O=c1c2ccccc2nc(-c2cccc([N+](=O)[O-])c2)n1O | 38.5 µM (inactive) | 36.8 µM (inactive) | 17.8 µM | 50.8 µM (inactive) | 42.9 µM (inactive) | 66.7 µM (inactive) | 58.5 µM (inactive) |  | 31.3 µM (inactive) | 33.7 µM (inactive) | 3.94 µM (inactive) | 43.4 µM (inactive) | 94.2 µM (inactive) | 50 µM (inactive) | 41.5 µM (inactive) | > 100 µM (inactive) | 33 µM (inactive) | 20.3 µM (inactive) | 27.2 µM (inactive) | 47.1 µM (inactive)
10 | Cc1cc2[nH]c3c(C#N)c(-c4ccccc4)c(/C=N/c4ccc(F)cc4)c(=O)n3c2cc1C | > 100 µM (inactive) | > 100 µM (inactive) | > 100 µM | > 100 µM (inactive) | > 100 µM (inactive) | > 100 µM (inactive) | 40.6 µM (inactive) | > 100 µM (inactive) | > 100 µM (inactive) | > 100 µM (inactive) |  | 59.7 µM (inactive) | > 100 µM (inactive) | > 100 µM (inactive) | 91.2 µM (inactive) | > 100 µM (inactive) | > 100 µM (inactive) | > 100 µM (inactive) | > 100 µM (inactive) | 91.2 µM (inactive)
11 | CC1=CCS(=O)(=O)C1C(O)C1=C(C)CCCC1(C)C (centres undefined) | > 100 µM (inactive) | > 100 µM (inactive) | > 100 µM | 69.2 µM (inactive) | > 100 µM (inactive) | > 100 µM (inactive) | 45.7 µM (inactive) | 71.3 µM (inactive) | 60.1 µM (inactive) | 38.3 µM (inactive) |  | 63.1 µM (inactive) | > 100 µM (inactive) | > 100 µM (inactive) | 63.4 µM (inactive) | > 100 µM (inactive) | 84.5 µM (inactive) | > 100 µM (inactive) | 62.2 µM (inactive) | > 100 µM (inactive)
12 | CC(C)N1[C@@H]2CCCC[C@H]2N(C(C)C)[PH]1=O | > 100 µM (inactive) | > 100 µM (inactive) | > 100 µM | > 100 µM (inactive) | > 100 µM (inactive) | > 100 µM (inactive) | > 100 µM (inactive) | > 100 µM (inactive) | > 100 µM (inactive) | > 100 µM (inactive) | > 100 µM (inactive) | > 100 µM (inactive) | > 100 µM (inactive) | > 100 µM (inactive) | > 100 µM (inactive) |  |  | > 100 µM (inactive) |  | > 100 µM (inactive)
13 | O=C(O)c1cc(-c2ccncc2)nc2ccccc12 | > 100 µM (inactive) | > 100 µM (inactive) | > 100 µM | > 100 µM (inactive) | > 100 µM (inactive) | > 100 µM (inactive) | > 100 µM (inactive) |  | > 100 µM (inactive) | > 100 µM (inactive) | > 100 µM (inactive) | > 100 µM (inactive) | > 100 µM (inactive) | > 100 µM (inactive) | > 100 µM (inactive) | > 100 µM (inactive) | > 100 µM (inactive) | > 100 µM (inactive) | > 100 µM (inactive) | > 100 µM (inactive)
14 | CSCCCC(NC(=O)CNC(=O)C1CCCN1C(=O)C(Cc1ccc(O)cc1)NC(=O)C(Cc1ccccc1)NC(=O)C(CCCNC(=N)N)NC(=O)C(CC(=O)O)NC(=O)C1CCCN1C(=O)C(CC(=O)O)NC(=O)C1CCCN1C(=O)C1CCCN1C(=O)CN)C(N)=O (centres undefined) (H-GPPDPDRFYPG[X41]-NH2; configuration not given here) | > 50 µM (inactive) | > 50 µM (inactive) | > 50 µM | > 50 µM (inactive) | > 50 µM (inactive) | > 50 µM (inactive) | > 50 µM (inactive) | > 50 µM (inactive) | > 50 µM (inactive) | > 50 µM (inactive) | > 50 µM (inactive) | > 50 µM (inactive) | > 50 µM (inactive) | > 50 µM (inactive) | > 50 µM (inactive) | > 50 µM (inactive) | > 50 µM (inactive) | > 50 µM (inactive) | > 50 µM (inactive) | 
15 | NS(=O)(=O)c1ccc(/N=N/c2ccc(O)c(C(=O)O)c2)cc1 [SALAZOSULFAMIDE] | > 100 µM (inactive) | > 100 µM (inactive) | > 100 µM | > 100 µM (inactive) | > 100 µM (inactive) | > 100 µM (inactive) | > 100 µM (inactive) |  | > 100 µM (inactive) | > 100 µM (inactive) | > 100 µM (inactive) | > 100 µM (inactive) | > 100 µM (inactive) | > 100 µM (inactive) | > 100 µM (inactive) | > 100 µM (inactive) | > 100 µM (inactive) | > 100 µM (inactive) |  | > 100 µM (inactive)
